13 molecules from patent US20230104936A1, “TRPML MODULATORS” (Casma Therapeutics, Inc., priority 2019, published 2023) can be followed below.

The test concerns TFEB. The test is described as follows: TFEB nuclear translocation assay, HeLa wt cells. The following applies: 2 hrs compound treatment, Table 1 does not say HeLa wt or TRPML1 KO. In kind it is cell-based. The method, boiled down:
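Using 20× epifluorescence of fixed, anti-TFEB-stained HeLa wt cells treated 2 hrs with compound, nuclear versus perinuclear ring intensity was quantified over four fields per well, yielding AC50 values.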

Where the note is “Homo sapiens, HeLa, 2 h”, `CN(C)S(=O)(=O)c1ccc(S(=O)(=O)Nc2ccccc2N2CCC(c3ccc(-c4nnn[nH]4)cc3)CC2)cc1` [Compound A-273, N1,N1-dimethyl-N4-(2-{4-[4-(1H-1,2,3,4-tetrazol-5-yl)phenyl]piperidin-1-yl}phenyl)benzene-1,4-disulfonamide] registered an AC50 not below 10000 nM.

In turn, `O=S(=O)(Cc1ccon1)Nc1cccc(Cl)c1N1CCOCC1` [Compound A-365, N-[3-chloro-2-(morpholin-4-yl)phenyl]-1-(1,2-oxazol-3-yl)methanesulfonamide] yielded an AC50 (Homo sapiens, HeLa, 2 h) not below 10000 nM.

In turn, `CC(c1cccc(F)c1N1CCCCC1)S(=O)(=O)c1ccc(S(=N)(=O)C(F)F)cc1` (single isomer, unassigned) [Compound A-937, (difluoromethyl)(4-((1-(3-fluoro-2-(piperidin-1-yl)phenyl)ethyl)sulfonyl)phenyl)(imino)-l6-sulfanone] returned an AC50 of 2010 to 8000 nM.

For the setting “Homo sapiens, HeLa, 2 h”, `COc1ccc(S(=O)(=O)Nc2ccc3c(cnn3C)c2N2CCN(c3ncc(Cl)cc3F)CC2)cc1` [Compound A-140, N-{4-[4-(5-chloro-3-fluoropyridin-2-yl)piperazin-1-yl]-1-methyl-1H-indazol-5-yl}-4-methoxybenzene-1-sulfonamide] showed an AC50 not above 2000 nM.

`CN(C)S(=O)(=O)c1ccc(S(=O)(=O)Nc2ccccc2N2CCC(C(=O)NC(C)(C)C)CC2)cc1` [Compound A-323, N-tert-butyl-1-{2-[4-(dimethylsulfamoyl)benzenesulfonamido]phenyl}piperidine-4-carboxamide] returned a concentration at half-maximal activity (AC50) (Homo sapiens, HeLa, 2 h) of 2010 to 8000 nM.

In turn, `CC(c1cccc(F)c1N1CCC(C)(C(F)F)CC1)S(=O)(=O)c1ccc(C(F)F)cc1` (single isomer, unassigned) [Compound A-964, 4-(difluoromethyl)-1-(2-(1-((4-(difluoromethyl)phenyl)sulfonyl)ethyl)-6-fluorophenyl)-4-methylpiperidine] had an AC50 not above 2000 nM. Molecule `CCC1(N2CCOCC2)CCN(c2ccccc2NS(=O)(=O)c2ccc(S(=O)(=O)N(C)C)cc2)CC1` [Compound A-451, N4-{2-[4-ethyl-4-(morpholin-4-yl)piperidin-1-yl]phenyl}-N1,N1-dimethylbenzene-1,4-disulfonamide] registered an AC50 (Homo sapiens, HeLa, 2 h) not above 2000 nM.

As for `CC(c1ccccc1N1CCN(C2COC2)CC1)S(=O)(=O)c1ccc(S(=O)(=O)N(C)C)cc1` (stereo not shown) [Compound A-603, N,N-dimethyl-4-(1-{2-[4-(oxetan-3-yl)piperazin-1-yl]phenyl}ethanesulfonyl)benzene-1-sulfonamide], the AC50 (Homo sapiens, HeLa, 2 h) is 2010 to 8000 nM. On to `C[C@@H]1CC(OC2CCN(c3c(F)cccc3NS(=O)(=O)c3ccc(S(=O)(=O)N(C)C)cc3)CC2)C[C@H](C)O1` (stereo partly drawn) [Compound A-817, N4-[2-(4-{[(2R,6S)-2,6-dimethyloxan-4-yl]oxy}piperidin-1-yl)-3-fluorophenyl]-N1,N1-dimethylbenzene-1,4-disulfonamide], for which the AC50 (Homo sapiens, HeLa, 2 h) is not above 2000 nM. The same measure, in the same setting: with `Cn1ccc2cc(S(=O)(=O)Nc3ccccc3N3CCN(C(=O)C(C)(C)C)CC3)ccc21` [Compound A-515, N-{2-[4-(2,2-dimethylpropanoyl)piperazin-1-yl]phenyl}-1-methyl-1H-indole-5-sulfonamide] the figure was 2010 to 8000 nM; with `COCC1(C)CCN(c2ccccc2NS(=O)(=O)c2ccc3c(c2)CCC3)CC1` [Compound A-608, N-{2-[4-(methoxymethyl)-4-methylpiperidin-1-yl]phenyl}-2,3-dihydro-1H-indene-5-sulfonamide], not above 2000 nM; with `CN(C)S(=O)(=O)c1ccc(S(=O)(=O)Nc2ccccc2N2CCC(O)(c3ncccc3F)CC2)cc1` [Compound A-355, N4-{2-[4-(3-fluoropyridin-2-yl)-4-hydroxypiperidin-1-yl]phenyl}-N1,N1-dimethylbenzene-1,4-disulfonamide], 2010 to 8000 nM.

With `CS(=O)(=O)c1ccc(S(=O)(=O)Nc2ccccc2N2CCC(c3ncc(F)cc3F)CC2)cc1` [Compound A-131, N-{2-[4-(3,5-difluoropyridin-2-yl)piperidin-1-yl]phenyl}-4-methanesulfonylbenzene-1-sulfonamide], for the setting “Homo sapiens, HeLa, 2 h”, the AC50 was not above 2000 nM.

One may read the AC50 as the midpoint of the concentration-response curve, whichever way the signal moves.
